# According to patent publication US20240246940A1, “HETEROARYL DERIVATIVE COMPOUND AND USE THEREOF” (VORONOI INC., priority 2021, published 2024):
# How the values were obtained:
# Assay type in all cases: cell-based
# [1] = tested on: BT-474 cells (HER2 overexpressing cell line); assay: BT-474 cell proliferation inhibitory activity (CellTiter-Glo, 120 hours); settings: Homo sapiens
# Protocol: (§1) To evaluate the cell proliferation inhibitory activity of the compound according to the present invention on HER2 and EGFR kinases, the following method was performed using HER2 overexpressing cell lines (SK-BR-3, BT-474, and N-87) and EGFR expressing cell line (HaCaT).
# (§2) McCOY'S 5A supplemented with 10% FBS was used for SK-BR-3 cells, RPMI-1640 medium supplemented with 20% FBS was used for BT-474 cancer cells, and RPMI-1640 medium supplemented with 10% FBS was used for N-87 cancer cells. DMEM supplemented with 10% FBS was used for HaCaT cells.
# (§3) For SK-BR-3 cells, 5000 cells were aliquoted into each well of a white clear bottom 96 well plate (Corning) 48 hours before treatment with the compounds of Examples. For BT-474 cells, 5000 cells were aliquoted into each well of a white clear bottom 96 well plate (Corning) 48 hours before treatment with the compounds of Examples. For N-87 cells, 5000 cells were aliquoted into each well of a white clear bottom 96 well plate (Corning) 24 hours before treatment with the compounds of Examples. For HaCaT cells, 3000 cells were aliquoted into each well of a white clear bottom 96 well plate (Corning) 24 hours before treatment with the compounds of Examples. For SK-BR-3 cells and BT-474 cells, the compounds of Examples were diluted in dimethyl sulfoxide (three-fold dilution, a total of 11 concentrations) and injected each in an amount of 1 μl to a final concentration of 0.2 nM to 10 μM. For N-87 cells, the compounds of Examples were diluted in dimethyl sulfoxide (five-fold dilution, a total of 11 concentrations) and injected each in an amount of 0.5 μl to a final concentration of […] to 5 μM. For HaCaT cells, the compounds of Examples were diluted in dimethyl sulfoxide (three-fold dilution, a total of 11 concentrations) and injected each in an amount of 0.5 μl to a final concentration of 0.8 nM to 45 μM. For the measurement of living cells, the cells were stored at room temperature for 10 minutes using CellTiter-Glo cell viability reagent (Promega) after a certain period of time (SK-BR-3: 120 hours, BT-474: 120 hours, N-87: 72 hours, and HaCaT: 72 hours) post treatment with the compounds of Examples, and the luminescence intensity thereof was measured using a reader (SynergyNeo, Biotek). Each test was repeated three times.
# (§4) The result values were calculated as a cell growth rate (%) compared to those of the control group. A graph was created using the GraphPad Prism version 5.0 program, and GI50 values were calculated.
# [2] = tested on: N-87 cells (HER2 overexpressing cell line); assay: N-87 cell proliferation inhibitory activity (CellTiter-Glo, 72 hours)
# Protocol: as §1, §2, §3, §4
# [3] = tested on: HaCaT cells (EGFR expressing cell line); assay: HaCaT cell proliferation inhibitory activity (CellTiter-Glo, 72 hours); settings: Homo sapiens
# Method in brief: (§5)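 GI50 values derive from luminescence-based live-cell counts, expressed relative to control growth. Final compound ranges were 0.2 nM–10 μM for the two breast lines, […]–5 μM in N-87 and 0.8 nM–45 μM in HaCaT. Tests were run three times.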
# [4] = tested on: SK-BR-3 cells (HER2 overexpressing cell line); assay: SK-BR-3 cell proliferation inhibitory activity (CellTiter-Glo, 120 hours); settings: Homo sapiens
# Method in brief: as §5
SMILES,GI50 [1],GI50 [4],GI50 [2],GI50 [3]
"C=CC(=O)N1CCC(Oc2cc3c(Nc4cc(-c5ccc(F)c(NC(C)=O)c5F)ccc4OC)ncnc3cc2OC)CC1 [Example 1, N-(3′-((6-((1-acryloylpiperidin-4-yl)oxy)-7-methoxyquinazolin-4-yl)amino)-2,4-difluoro-4′-methoxy-[1,1′-biphenyl]-3-yl)acetamide]",≤ 150 nM,–,≤ 150 nM,> 1000 nM
"C=CC(=O)N1CCC(Oc2cc3c(Nc4cc(-c5ccc(F)c(NC(=O)C6CC6)c5F)ccc4OC)ncnc3cc2OC)CC1 [Example 2, N-(3'-((6-((1-acryloylpiperidin-4-yl)oxy)-7-methoxy-quinazolin-4-yl)amino)-2,4-difluoro-4′-methoxy-[1,11 biphenyl]-3-yl)cyclopropan-carboxamide]",≤ 150 nM,–,≤ 150 nM,> 1000 nM
"C=CC(=O)N1CC(Oc2cc3c(Nc4cc(-c5ccc(F)c(NC(=O)C6CC6)c5F)ccc4OC)ncnc3cc2OC)C1 [Example 3, N-(3′-((6-((1-acryloylazetidin-3-yl)oxy)-7-methoxy-quinazolin-4-yl)amino)-2,4-difluoro-4′-methoxy-[1,1′-biphenyl]-3-yl)cyclopropan-carboxamide]",≤ 150 nM,–,≤ 150 nM,150 to 1000 nM
"C=CC(=O)N1CCC(Oc2cc3c(Nc4cc(-c5ccc(F)c(NC(=O)C6CC6)c5)ccc4OC)ncnc3cc2OC)CC1 [Example 4, N-(3′-((6-((1-acryloylpiperidin-4-yl)oxy)-7-methoxy-quinazolin-4-yl)amino)-4-fluoro-4′-methoxy-[1,1'-biphenyl]-3-yl)cyclopropan-carboxamide]",≤ 150 nM,–,≤ 150 nM,> 1000 nM
"C=CC(=O)N1CCC(Oc2cc3c(Nc4cc(-c5ccc(F)c(N)c5)ccc4OC)ncnc3cc2OC)CC1 [Example 146, 1-(4-((4-((3′-amino-4′-fluoro-4-methoxy-[1,1′-biphenyl]-3-yl)amino)-7-methoxy-quinazolin-6-yl)oxy)piperidin-1-yl)prop-2-en-1-one]",–,≤ 150 nM,≤ 150 nM,> 1000 nM
"C=CC(=O)N1CCC(Oc2cc3c(Nc4cc(-c5ccc(F)cc5F)ccc4OC)ncnc3cc2O[C@@H]2CCOC2)CC1 [Example 281, (R)-1-(4-((4-((2′,4′-difluoro-4-methoxy-[1,1′-biphenyl]-3-yl)amino)-7-((tetrahydrofuran-3-yl)oxy)quinazolin-6-yl)oxy)piperidin-1-yl)prop-2-en-1-one]",–,≤ 150 nM,≤ 150 nM,≤ 150 nM
"COc1cc2ncnc(Nc3cc(-c4ccc(F)cc4F)c(F)cc3OC)c2cc1NC(=O)/C=C/[C@H]1CCCN1C [Example 308, (R,E)-N-(7-methoxy-4-((2′,4′,6-trifluoro-4-methoxy-[1,1′-biphenyl]-3-yl)amino)quinazolin-6-yl)-3-(1-methylpyrrolidin-2-yl)acrylamide]",≤ 150 nM,–,–,≤ 150 nM
"COc1cc2ncnc(Nc3cc(-c4ccc(F)cc4F)ccc3OC)c2cc1NC(=O)/C=C/CN1CCOCC1 [Example 316, (E)-N-(4-((2′,4′-difluoro-4-methoxy-[1,1′-biphenyl]-3-yl)amino)-7-methoxyquinazolin-6-yl)-4-morpholinobut-2-enamide]",≤ 150 nM,–,–,≤ 150 nM
"COc1cc2ncnc(Nc3cc(-c4ccc(F)cc4F)ccc3OC)c2cc1NC(=O)/C=C/CN1CCN(C)CC1 [Example 317, (E)-N-(4-((2′,4′-difluoro-4-methoxy-[1,1′-biphenyl]-3-yl)amino)-7-methoxyquinazolin-6-yl)-4-(4-methylpiperazin-1-yl)but-2-enamide]",≤ 150 nM,–,–,≤ 150 nM
"COc1cc2ncnc(Nc3cc(-c4ccco4)ccc3OC)c2cc1NC(=O)/C=C/CN1C2COCC1C2 [Example 318, (E)-4-(3-oxa-6-azabicyclo[3.1.1]heptan-6-yl)-N-(4-((5-(furan-2-yl)-2-methoxyphenyl)amino)-7-methoxyquinazolin-6-yl)but-2-enamide]",≤ 150 nM,–,–,≤ 150 nM
COc1cc2ncnc(Nc3cc(-c4ccc(F)cc4F)ccc3OC)c2cc1NC(=O)/C=C/CN1C2COCC1C2 [Example 319],≤ 150 nM,–,–,≤ 150 nM
"C=CC(=O)N1CCC2(CC1)CN(c1cc3c(Nc4cc(-c5ccco5)ccc4OC)ncnc3cc1OC)C2 [Example 324, 1-(2-(4-((5-(furan-2-yl)-2-methoxyphenyl)amino)-7-methoxyquinazolin-6-yl)-2,7-diazaspiro[3.5]nonan-7-yl)prop-2-en-1-one]",> 1000 nM,–,–,150 to 1000 nM
"C=CC(=O)N1CCC2(CC1)CN(c1cc3c(Nc4cc(-c5ccc(F)cc5F)ccc4OC)ncnc3cc1OC)C2 [Example 325, 1-(2-(4-((2′,4′-difluoro-4-methoxy-[1,1′-biphenyl]-3-yl)amino)-7-methoxyquinazolin-6-yl)-2,7-diazaspiro[3.5]nonan-7-yl)prop-2-en-1-one]",150 to 1000 nM,–,–,150 to 1000 nM
"C=CC(=O)N1CC2(C1)CN(c1cc3c(Nc4cc(-c5ccco5)ccc4OC)ncnc3cc1OC)C2 [Example 326, 1-(6-(4-((5-(furan-2-yl)-2-methoxyphenyl)amino)-7-methoxyquinazolin-6-yl)-2,6-diazaspiro[3.3]heptan-2-yl)prop-2-en-1-one]",> 1000 nM,–,–,150 to 1000 nM

# More lines, main results first:
GI50 [1],GI50 [4],SMILES,GI50 [2],GI50 [3]
≤ 150 nM,–,"C=CC(=O)N1CCC(Oc2cc3c(Nc4cc(-c5ccco5)ccc4OC)ncnc3cc2OC)[C@H](C)C1 (stereo in doubt) [Example 169, 1-((3R,4S)-4-((4-((5-(furan-2-yl)-2-methoxyphenyl)amino)-7-methoxy-quinazolin-6-yl)oxy)-3-methylpiperidin-1-yl)prop-2-en-1-one]",≤ 150 nM,≤ 150 nM
≤ 150 nM,–,"COc1cc2ncnc(Nc3cc(-c4ccco4)ccc3OC)c2cc1NC(=O)/C(F)=C\[C@@H]1CCCN1C [Example 309, (S,E)-2-fluoro-N-(4-((5-(furan-2-yl)-2-methoxyphenyl)amino)-7-methoxyquinazolin-6-yl)-3-(1-methylpyrrolidin-2-yl)acrylamide]",–,≤ 150 nM
≤ 150 nM,–,"COc1cc2ncnc(Nc3cc(-c4ccco4)ccc3OC)c2cc1NC(=O)/C=C/CN1CCN(C)CC1 [Example 314, (E)-N-(4-((5-(furan-2-yl)-2-methoxyphenyl)amino)-7-methoxyquinazolin-6-yl)-4-(4-methylpiperazin-1-yl)but-2-enamide]",–,≤ 150 nM
≤ 150 nM,–,"COc1cc2ncnc(Nc3cc(-c4ccco4)ccc3OC)c2cc1NC(=O)/C=C/CN1CCOCC1 [Example 315, (E)-N-(4-((5-(furan-2-yl)-2-methoxyphenyl)amino)-7-methoxyquinazolin-6-yl)-4-morpholinobut-2-enamide]",–,≤ 150 nM
150 to 1000 nM,–,"COc1ccc(-c2ccc(F)cc2F)cc1Nc1ncnc2ccc(NC(=O)/C=C/CN(C)C)c(Cl)c12 [Example 320, (E)-N-(5-chloro-4-((2′,4′-difluoro-4-methoxy-[1,1′-biphenyl]-3-yl)amino)quinazolin-6-yl)-4-(dimethylamino)but-2-enamide]",–,150 to 1000 nM
> 1000 nM,–,"COc1ccc(-c2ccco2)cc1Nc1ncnc2ccc(NC(=O)/C=C/CN(C)C)c(Cl)c12 [Example 321, (E)-N-(5-chloro-4-((5-(furan-2-yl)-2-methoxyphenyl)amino)quinazolin-6-yl)-4-(dimethylamino)but-2-enamide]",–,150 to 1000 nM
